Key:
[1] = Cmax after oral administration at a dose of 4 mg/kg in rat; format: ADME, organism-based; parameters: dose 4 mg/kg, route oral; conditions: in vivo
[2] = biological target: T1, Adenosine receptor A1 (Cavia porcellus) (UniProt P47745)
T1 sequence (whole entry): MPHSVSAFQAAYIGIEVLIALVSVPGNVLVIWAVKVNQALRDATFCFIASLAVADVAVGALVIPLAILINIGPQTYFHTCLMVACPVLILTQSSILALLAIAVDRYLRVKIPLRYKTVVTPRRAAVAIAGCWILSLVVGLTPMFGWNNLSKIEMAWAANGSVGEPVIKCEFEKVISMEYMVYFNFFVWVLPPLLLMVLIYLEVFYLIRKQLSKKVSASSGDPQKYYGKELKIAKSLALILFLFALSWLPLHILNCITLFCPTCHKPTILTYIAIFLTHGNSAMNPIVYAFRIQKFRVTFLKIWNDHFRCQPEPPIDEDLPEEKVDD

[3] = Plasma clearance after IV dosing at 1 mg/kg in rat; format: ADME, organism-based; parameters: dose 1 mg/kg, route intravenous; conditions: read-out: Clp
[4] = biological target: T2, Adenosine receptor A1 (Cavia porcellus, UniProt P47745); assay: Agonistic activity against adenosine A1 receptor in guinea pig isolated hearts; format: functional
T2 sequence (P47745 whole entry): T1 sequence (whole entry)

[5] = Elimination half-life after oral administration at a dose of 4 mg/kg in rat; format: ADME, organism-based; parameters: dose 4 mg/kg, route oral; conditions: in vivo
[6] = biological target: T1, Adenosine receptor A1 (Cavia porcellus); assay: Binding affinity against […] using [35S]GTP-gamma-S, radioligand in guinea pig.; format: functional
[7] = Elimination half-life after IV dosing at 1 mg/kg in rat; format: ADME, organism-based; parameters: dose 1 mg/kg, route intravenous; conditions: in vivo
[8] = biological target: T1, Adenosine receptor A1 (Cavia porcellus); remark: listed apart in the source
[9] = Bioavailability after oral administration at a dose of 4 mg/kg in rat; format: ADME, organism-based; conditions: in vivo
[10] = biological target: T1, Adenosine receptor A1 (Cavia porcellus); assay: Binding affinity against adenosine A1 receptor using [3H]CPX in guinea pig DDT membrane; 117+/-46
[11] = Elimination half-life after IV dosing at 0.5 mg/kg in rat; format: ADME, organism-based; parameters: dose 0.5 mg/kg, route intravenous; conditions: in vivo
[12] = Elimination half-life after oral administration at a dose of 2 mg/kg in rat; format: ADME, organism-based; parameters: dose 2 mg/kg, route oral; conditions: in vivo
[13] = biological target: T1, Adenosine receptor A1 (Cavia porcellus); assay: Binding affinity against adenosine A1 receptor using [3H]CCPA in guinea pig DDT membrane; 12.7+/-1.5
[14] = Bioavailability after oral administration at a dose of 2 mg/kg in rat; format: ADME, organism-based; conditions: in vivo
[15] = Plasma clearance after IV dosing at 0.5 mg/kg in rat; format: ADME, organism-based; parameters: dose 0.5 mg/kg, route intravenous; conditions: read-out: Clp
[16] = Cmax after oral administration at a dose of 2 mg/kg in rat; format: ADME, organism-based; parameters: dose 2 mg/kg, route oral; conditions: in vivo

| Cmax [1] [µg/mL] | Ki high [2] [µM] | clearance [3] [L/h/kg] | EC50 [4] [µM] | half-life [5] [min] | efficacy relative to CPA [6] [%] | half-life [7] [min] | Ki low [8] [µM] | bioavailability [9] [%] | Ki low [10] [µM] | half-life [11] [min] | half-life [12] [min] | Ki high [13] [µM] | bioavailability [14] [%] | clearance [15] [L/h/kg] | Cmax [16] [µg/mL] | SMILES |
| --- | --- | --- | --- | --- | --- | --- | --- | --- | --- | --- | --- | --- | --- | --- | --- | --- |
| 0.107 | 0.079 | 4.16 | 1.26 | 78 | 72 | 24 | 0.506 | 12.3 | – | – | – | – | – | – | – | OC1[C@@H](O)C(n2cnc3c(NC4CCOC4)ncnc32)O[C@@H]1CSc1ccccc1F (single isomer, unassigned) |
| – | – | – | 0.2 | – | 78 | – | – | – | 0.117 | 18 | 96 | 0.0127 | 81 | 12.1 | 0.0603 | OC1[C@@H](O)C(n2cnc3c(NC4CCOC4)ncnc32)O[C@@H]1COc1ccccc1F (single isomer, unassigned) |
